The text below walks through data of US20100040666A1, “Method for Control of Drug Elution Rate and Composition for Coating of Drug-Eluting Stent” (priority 2005, published 2010).

This data set can be described thus: Elution test of compound represented by structural formula (2) from poly (MPC-co-BMA). Type of data set: physicochemical. Conditions: thin plate of stainless steel coated sequentially with compositions of Examples 1 to 3, immersed in distilled water. As for the experimental part:
Test 2: Elution Test of Compound Represented by Structural Formula (2)
The elution test of the compound represented by the structural formula (2) from poly (MPC-co-BMA) was conducted. The test sample was prepared by coating sequentially the compositions from Examples 1 to 3 to a thin plate of stainless steel. The prepared sample was immersed in distilled water, and then the amount of the eluted compound represented by the structural formula (2) was measured with time.
It can be verified that the compound represented by the structural formula (2) is eluted for about 100 hours. In addition, even after 100 hours, the compound represented by the structural formula (2) is eluted gradually for 400 hours, and thus it can be verified that controlled release is intended.

For the compound `CCOc1cccc(C(CC)n2nc(C(=O)O)c3c2-c2ccc(OCc4cncnc4)cc2CC3)c1` (centres unmarked) [structural formula (2)], the “time for which the compound is eluted (cumulative eluted amount, FIG. 3)” value is recorded as “about 100 hours” and the “time for which the compound is eluted gradually, even after 100 hours (controlled release)” value came to 400 h.
